# Measured values taken from patent US11319315B2, “Cyclohexyl acid triazole azoles as LPA antagonists” (BRISTOL-MYERS SQUIBB COMPANY, priority 2017, dated 2022).
# Like-named read-outs stand apart in the source and are kept apart here.
# Assays:
# [1] = system: IPF patients; conditions: 26-week clinical trial in IPF patients; cited from earlier work
# [2] = system: CD-1 female mice; test: LPA challenge with plasma histamine evaluation (acute in vivo histamine assay); set-up: species or system mouse; conditions: 1 mg/kg dose
# Experimental: LPA Challenge with Plasma Histamine Evaluation.
# Compound is dosed orally p.o. 2 hours to CD-1 female mice prior to the LPA challenge. The mice are then dosed via tail vein (IV) with 0.15 mL of LPA in 0.1% BSA/PBS (2 μg/μL). Exactly 2 minutes following the LPA challenge, the mice are euthanized by decapitation and the trunk blood is collected. These samples are collectively centrifuged and individual 75 μL samples are frozen at −20° C. until the time of the histamine assay.
# The plasma histamine analysis was run by standard EIA (Enzyme Immunoassay) methods. Plasma samples were thawed and diluted 1:30 in 0.1% BSA in PBS. The EIA protocol for histamine analysis as outlined by the manufacturer was followed (Histamine EIA, Oxford Biomedical Research, EA #31).
# The LPA used in the assay is formulated as follows: LPA (l-oleoyl-2-hydroxy-sn-glycero-3-phosphate (sodium salt), 857130P, Avanti Polar Lipids) is prepared in 0.1% BSA/PBS for total concentration of 2 μg/μL. 13 mg of LPA is weighed and 6.5 mL 0.1% BSA added, vortexed and sonicated for 1 hour until a clear solution is achieved.
# [3] = target: T1, human LPA1 (Homo sapiens, UniProt Q92633); test: LPA1 functional antagonist assay (LPA-induced calcium flux in CHO cells overexpressing human LPA1); type: cell-based; conditions: read-out: hLPA1 IC50
# T1 construct: expressed in transfected cells; host or cells: Chinese hamster ovary (CHO) cells
# Summary of the method: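 CHO cells overexpressing human LPA1, dye-loaded 30 min at 37 °C, then given compound (0.08 nM–5 μM final, 0.5% DMSO) in HBSS/20 mM HEPES/0.1% fatty-acid-free BSA for 20 min at room temperature before 10 nM LPA. IC50 as 50% inhibition of LPA-evoked calcium flux, 4-parameter logistic fit.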
# [4] = system: nerve-injured mice; conditions: pretreatment; cited from earlier work
# [5] = system: human foetal lung fibroblasts; conditions: cited from earlier work
# [6] = system: MCT; conditions: MCT cells, co-treatment with LPA; cited from earlier work
# [7] = system: pancreatic cancer cell lines; conditions: cited from earlier work
# [8] = system: UUO mice; conditions: cited from earlier work
# [9] = inhibition of calcium flux induced by 10 nM LPA, CHO cells overexpressing human LPA1
# T1 sequence (Q92633 whole entry): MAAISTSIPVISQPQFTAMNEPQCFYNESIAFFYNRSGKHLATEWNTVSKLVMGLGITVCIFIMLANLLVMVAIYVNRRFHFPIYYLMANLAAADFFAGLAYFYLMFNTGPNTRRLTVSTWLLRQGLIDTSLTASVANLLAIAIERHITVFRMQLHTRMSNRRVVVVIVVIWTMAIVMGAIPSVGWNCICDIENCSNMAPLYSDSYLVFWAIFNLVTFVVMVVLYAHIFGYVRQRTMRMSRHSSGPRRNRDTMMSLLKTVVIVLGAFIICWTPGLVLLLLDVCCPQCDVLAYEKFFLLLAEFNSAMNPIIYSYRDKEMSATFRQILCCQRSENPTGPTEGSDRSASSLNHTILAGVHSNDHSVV
compound,measurement,setting,value
Cc1noc(-c2ccc(-c3ccc(C4(C(=O)O)CC4)cc3)cc2)c1NC(=O)O[C@H](C)c1ccccc1 [BMS-986020],rate of FVC (forced vital capacity) decline,[1],significantly reduce
Cc1nc(-c2nnn(C)c2CNc2noc(CC3CC3)n2)ccc1O[C@H]1CCC[C@H](C(=O)O)C1 [Example 70],"histamine, acute in vivo histamine assay in CD-1 mice",[2],−39%
same,IC50,[3]; [9],15 nM
"Cn1nnc(-c2ncc(O[C@H]3CCC[C@H](C(=O)O)C3)cc2F)c1CNc1noc(CCC2CC2)n1 [Example 409, (1S,3S)-3-((6-(5-(((5-(2-cyclopropylethyl)-1,2,4-oxadiazol-3-yl)amino)methyl)-1-methyl-1H-1,2,3-triazol-4-yl)-5-fluoropyridin-3-yl)oxy)cyclohexane-1-carboxylic acid]",IC50,[3],1920 nM
"Cc1nc(-c2nnn(C)c2CNc2noc(COCCCCF)n2)ccc1O[C@H]1CCC[C@H](C(=O)O)C1 [Example 410, (1S,3S)-3-((6-(5-(((5-((4-fluoro-butoxy)methyl)-1,2,4-oxadiazol-3-yl)amino)methyl)-1-methyl-1H-1,2,3-triazol-4-yl)-2-methylpyridin-3-yl)oxy)cyclohexane-1-carboxylic acid]",IC50,[3],43 nM
"Cc1nc(-c2nnn(C)c2Nc2nc(-c3ccccc3)no2)ccc1O[C@H]1CCC[C@H](C(=O)O)C1 [Example 411, (1 S,3S)-3-((2-methyl-6-(1-methyl-5-((3-phenyl-1,2,4-oxadiazol-5-yl)amino)-1H-1,2,3-triazol-4-yl)pyridin-3-yl)oxy)cyclohexane-1-carboxylic acid]",IC50,[3]; [9],1440 nM
"Cc1nc(-c2nnn(C)c2Cn2nnc(C3CC3)n2)ccc1O[C@H]1CCC[C@H](C(=O)O)C1 [Example 412, (1S,3S)-3-((6-(5-((5-cyclopropyl-2H-tetrazol-2-yl)methyl)-1-methyl-1H-1,2,3-triazol-4-yl)-2-methyl-pyridin-3-yl)oxy)cyclohexane-1-carboxylic acid]",IC50,[3],384 nM
C[C@@H](N)[C@H]1CC[C@H](C(=O)Nc2ccncc2)CC1 [Example Y-27632],allodynia and hyperalgesia,[4],completely abolished
Cc1noc(-c2ccc(CSCCC(=O)O)cc2)c1NC(=O)OC(C)c1ccccc1Cl (stereo not shown) [Ki16425],chemotaxis of human foetal lung fibroblasts induced by BAL from IPF patients,[5],blocked
same,LPA-induced CTGF expression,[6],almost completely suppressed
same,LPA-induced and ascites-induced invasion activity,[7]; highly peritoneal metastatic pancreatic cancer cell line,blocked
same,in vitro migration in response to LPA and peritoneal fluid (ascites) from pancreatic cancer patients,[7]; pancreatic cancer cell lines,effectively blocked
same,renal fibrosis profile in UUO mice,[8],closely resembled the profile of LPA1 (−/−) mice
